Article PMC4742250 (Biochimica et biophysica acta, 2008)
Where a SMILES comes first, the peptide text is derived from it. Bridges are numbered along the chain shown (N, C = ends).

Assays:
Trx-gp5Δ22 interaction = Trx-gp5Δ22 interaction (Escherichia coli, UniProt P0AA25); assay: biochemical; set-up: species or system E. coli (Trx); bacteriophage T7 (gp5Δ22)
E. coli Trx = E. coli Trx (Escherichia coli, UniProt P0AA25); assay: dilution binding assay of biotinylated TP-2 to immobilized Trx
Src SH3 = conditions: read-out: KD, Src SH3 and its peptide ligand; ref [23]; cited from earlier work
human Src SH3 domain = assay: phage ELISA, binding to human Src SH3 domain; conditions: immobilized on polystyrene plates, O.D. 405 nm, triplicate wells

Sequence of E. coli Trx (P0AA25 whole entry): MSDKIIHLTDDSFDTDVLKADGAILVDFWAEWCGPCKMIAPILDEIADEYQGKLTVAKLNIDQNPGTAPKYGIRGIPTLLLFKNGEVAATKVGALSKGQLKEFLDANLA
Sequence of Trx-gp5Δ22 interaction (P0AA25 2-109, stated change not applied): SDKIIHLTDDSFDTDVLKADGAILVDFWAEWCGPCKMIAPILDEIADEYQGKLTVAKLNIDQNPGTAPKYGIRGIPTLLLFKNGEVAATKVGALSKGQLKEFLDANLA

Row | Compound | IC50 (Trx-gp5Δ22 interaction) [µM] | Kd (E. coli Trx) [nM] | reduction of peptide binding in the presence of DTT (E. coli Trx; 10 mM DTT, data not shown) [%] | Kd (Src SH3) [µM] | binding to human Src SH3 domain (human Src SH3 domain)
1 | CC[C@H](C)[C@H](NC(=O)[C@H](CC(C)C)NC(=O)[C@H](CCCNC(=N)N)NC(=O)[C@H](CC(=O)O)NC(=O)[C@@H]1CCCN1C(=O)[C@@H](NC(=O)[C@@H](NC(=O)[C@@H]1CSSC[C@H](NC(=O)[C@H](CC(N)=O)NC(=O)[C@@H](NC(=O)[C@H](CC(N)=O)NC(=O)[C@H](CCCNC(=N)N)NC(=O)[C@@H](N)CO)C(C)C)C(=O)N[C@@H](CC(N)=O)C(=O)N[C@@H](C)C(=O)N[C@@H](CO)C(=O)N[C@@H](C(C)C)C(=O)N1)[C@@H](C)O)[C@@H](C)CC)C(=O)N[C@H](C(=O)N[C@@H](CC(=O)O)C(=O)N[C@@H](CC(N)=O)C(=O)N1CCC[C@H]1C(=O)NCC(=O)N[C@@H](CO)C(=O)NCC(=O)N[C@@H](CO)C(N)=O)[C@@H](C)O [TP-2] (H-SRNVNCNASVCTIPDRLITDNPGSGS-NH2; disulfide 6-11) | ~10 | 2000 | > 50 | – | –
2 | H-SSRPLPPLPGS-NH2 [Src SH3 peptide ligand] | – | – | – | ~5 | binds to Src SH3 domain
